Results as given in publication PMC11433679, “Synthesis, Characterization, and Biological Evaluation of N-Methyl Derivatives of Norbelladine” (Molecules, 2024).
“And” between values parts separate entries of the source, which are not always exact repeats. Equal values may be shown once.

Legend:
[1] = target: T1, acetylcholinesterase (AChE) (Electrophorus electricus, UniProt O42275); test: Acetylcholinesterase inhibition, colorimetric (DTNB, acetylthiocholine substrate); type: biochemical, electric eel; settings: for inhibition at 500 µM: highest tested concentration; for IC50: Nd = >500 μM
T1 construct: purchased Abcam ab138871
T1 sequence (O42275 24-633): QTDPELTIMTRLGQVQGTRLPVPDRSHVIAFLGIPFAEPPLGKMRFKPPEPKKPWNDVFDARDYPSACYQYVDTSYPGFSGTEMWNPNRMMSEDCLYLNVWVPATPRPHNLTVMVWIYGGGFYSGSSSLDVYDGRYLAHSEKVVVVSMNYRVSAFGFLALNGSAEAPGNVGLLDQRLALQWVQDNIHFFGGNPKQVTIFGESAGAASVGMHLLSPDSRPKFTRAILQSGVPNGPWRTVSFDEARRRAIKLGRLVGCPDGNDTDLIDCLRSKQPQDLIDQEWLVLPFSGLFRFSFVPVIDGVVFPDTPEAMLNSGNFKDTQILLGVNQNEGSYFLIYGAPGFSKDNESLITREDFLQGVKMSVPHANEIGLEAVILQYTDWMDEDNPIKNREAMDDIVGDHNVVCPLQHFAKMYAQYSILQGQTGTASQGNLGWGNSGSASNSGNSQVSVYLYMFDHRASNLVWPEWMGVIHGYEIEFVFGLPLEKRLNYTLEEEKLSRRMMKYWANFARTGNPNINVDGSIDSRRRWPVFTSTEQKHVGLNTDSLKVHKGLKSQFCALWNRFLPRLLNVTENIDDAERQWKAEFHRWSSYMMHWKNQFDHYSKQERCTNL
Procedure: (§1) Pharmacological properties specific to Alzheimer’s disease (AD) were tested on acetylcholinesterases (AChEs) from electric eels and butyrylcholinesterase (BuChE) from equine species using a colorimetric kit (ab138871, Abcam, Cambridge, UK), which measures enzyme activity and inhibition. The reaction was carried out in a final volume of 100 µL in 96-well microplates. […] A 5 µL reaction mixture containing equal amounts of acetylthiocholine/butyrylthiocholine (20X) and DTNB (20X) was then added to each well. Subsequently, the enzyme solution was added to a final concentration of 2 U/mL, and absorbance was measured at 412 nm in kinetic mode for 10 min using a microplate reader (Synergy H1, Biotek, Dorval, QC, Canada). DTNB (Bis(3-carboxy-4-nitrophenyl) disulfide, Ellman’s Reagent), acetylthiocholine iodide, and butyrylthiocholine iodide were obtained from Sigma-Aldrich (Oakville, ON, Canada). Galanthamine (50–0.05 µM) and rivastigmine (400–0.4 µM) were used as positive controls for the AChE and BuChE assays, respectively. Compounds showing inhibition during preliminary screenings were selected for further IC50 value assessment using serially diluted concentrations. All experiments were performed at least twice. Inhibition was calculated using the formula [24]:I = 100 × (1 − ΔAi/ΔA0), where ΔAi is the difference in absorbance between two time points in the presence of the inhibitor, and ΔA0 is the difference in absorbance between two-time points in the presence of DMSO or an appropriate solvent.

[2] = target: butyrylcholinesterase (BuChE) (Equus caballus, UniProt P81908); test: Butyrylcholinesterase inhibition, colorimetric (DTNB, butyrylthiocholine substrate); type: biochemical, equine; settings: for inhibition at 500 µM: highest tested concentration; for IC50: butyrylthiocholine substrate; for fold increase in BuChE inhibition by N-methylation compared to non-N-methylated control: ratio of IC50 values
butyrylcholinesterase (BuChE), sequence (P81908 whole entry): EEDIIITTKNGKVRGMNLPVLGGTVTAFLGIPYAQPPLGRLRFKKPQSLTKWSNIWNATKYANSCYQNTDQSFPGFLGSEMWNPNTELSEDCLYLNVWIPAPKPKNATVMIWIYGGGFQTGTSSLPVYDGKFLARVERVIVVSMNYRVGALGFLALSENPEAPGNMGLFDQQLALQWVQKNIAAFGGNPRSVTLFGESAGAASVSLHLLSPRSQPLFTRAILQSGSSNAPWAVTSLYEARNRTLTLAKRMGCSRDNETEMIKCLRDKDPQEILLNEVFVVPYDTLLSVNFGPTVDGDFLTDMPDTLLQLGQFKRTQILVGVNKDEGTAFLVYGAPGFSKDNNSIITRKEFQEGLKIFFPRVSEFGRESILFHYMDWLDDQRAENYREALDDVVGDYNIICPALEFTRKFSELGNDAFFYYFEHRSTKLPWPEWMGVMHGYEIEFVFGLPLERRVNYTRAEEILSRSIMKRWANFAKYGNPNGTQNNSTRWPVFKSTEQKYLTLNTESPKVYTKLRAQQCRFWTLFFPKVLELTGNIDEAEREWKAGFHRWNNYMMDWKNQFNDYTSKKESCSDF
Procedure: as §1

[3] = test system: human coronavirus OC43 (HCoV-OC43); test: Antiviral assay, HCoV-OC43 replication in HCT-8 cells (flow cytometry); type: cell-based, human betacoronavirus OC43; settings: for EC50: Betacoronavirus 1, OC43, HCT-8, 72 h, read-out: EC50 OC-43; for SI OC-43 (selectivity index, ratio CC50/EC50): CC50 HCT-8 / EC50 OC-43
[4] = Cytotoxicity assay (Cell-Titer GLO, ATP levels, 72 h); type: cell-based, human; settings: human, 72 h treatment, 4–500 µM
Text: (§2) The human hepatocarcinoma Huh7 cell line (CVCL_0336) was maintained in Dulbecco’s Modified Eagle Medium (DMEM) supplemented with 10% fetal bovine serum (FBS) and 1% penicillin/streptomycin solution (PS, from GIBCO, Fisher Scientific, Toronto, ON, Canada). The human leukemia monocytic THP-1 (CVCL_0006) and adenocarcinoma HCT-8 cell lines (CVCL_2478) were maintained in Roswell Park Memorial Institute (RPMI) medium supplemented with 10% FBS or horse serum, respectively, and 1% PS. All reagents and antibiotics were purchased from GIBCO, Fisher Scientific, Toronto, ON, Canada). Cells were kept in an incubator at 37 °C and 5% CO2.
(§3) In total, 10 × 10^3 Huh7 cells/well, or 5 × 10^4 THP-1 or HCT-8 cells/well were plated in 96-well plates and incubated at 37 °C and 5% CO2. Compounds (4–500 µM, 2-fold dilutions) were added the next day and cytotoxicity was assessed 72 h later by measuring ATP levels with the Cell-Titer GLO assay kit (Promega, Madison, WI, USA). Cell-Titer GLO reagent was added to the plates previously equilibrated to room temperature for 30 min. Plates were mixed for 2 min and incubated for 10 min at room temperature. The luminescence signal was measured with a microplate reader (Synergy H1, Biotek, Dorval, QC, Canada). Viability percentage was calculated as the ratio of the signal of cells exposed to compounds to the signal of cells exposed to solvent (methanol). All experiments were performed at least twice. Median cytotoxic concentrations (CC50) were calculated using GraphPad prism 10.0.2 (GraphPad Software, San Diego, CA, USA).

pseudotyped HIV-1 = test: microbe, parasite or virus in culture; type: cell-based, human immunodeficiency virus (HIV)-1; settings: for SI HIV-1 (selectivity index, ratio CC50/EC50): CC50 THP-1 / EC50 HIV-1; for EC50: Human immunodeficiency virus 1, THP-1, 72 h, read-out: EC50 HIV-1
dengue virus (DENV) = test: microbe, parasite or virus in culture; type: cell-based; settings: for SI DENV (selectivity index, ratio CC50/EC50): CC50 Huh7 / EC50 DENV; for EC50: Dengue virus, Huh-7, 72 h, DENVGFP in Huh7 cells, MOI 0.1, 3 days
[5] = Cytotoxicity assay (Cell-Titer GLO, ATP levels, 72 h); type: cell-based; settings: human; HCT-8 cells, 72 h treatment, 4–500 µM
Text: as §2, §3

AChE = test system: AChE; parameters: method as in earlier work; settings: ref 19 (Vaněčková et al.); cited from earlier work
Huh7 cells = test: Cytotoxicity assay (Cell-Titer GLO, ATP levels, 72 h); type: cell-based, human; settings: 72 h treatment, 4–500 µM
Text: as §2, §3

THP-1 cells = test: as above; type: cell-based, human; settings: 72 h treatment, 4–500 µM
Text: as §2, §3

With COc1ccc(CNCCc2ccc(O)cc2)cc1OC [3′,4′-O-dimethylnorbelladine] the inhibition at 500 µM [1] was 37%, the IC50 [1] was > 500 µM and the inhibition at 500 µM [2] was 94%. For the same molecule, the IC50 [2] was 108 µM, the EC50 [3] was 84.7 µM and the “SI OC-43 (selectivity index, ratio CC50/EC50)” value [3] was >5.91. The CC50 at 72 h ([4]; Huh7 cells) was > 500 µM, the CC50 at 72 h ([4]; THP-1 cells) was > 500 µM and the “SI HIV-1 (selectivity index, ratio CC50/EC50)” value (pseudotyped HIV-1) was >2.63. For the same molecule, the EC50 (pseudotyped HIV-1) was 190 µM, the “SI DENV (selectivity index, ratio CC50/EC50)” value (dengue virus (DENV)) was >3.64 and the EC50 (dengue virus (DENV)) was 137 µM. For the same molecule, the CC50 at 72 h [5] was > 500 µM.
With COc1cc(CNCCc2ccc(O)cc2)ccc1O [3′-O-methylnorbelladine] the inhibition at 500 µM [1] was 10%, the IC50 [1] was > 500 µM and the inhibition at 500 µM [2] was 96%. For the same molecule, the IC50 [2] was 27.5 µM, the EC50 [3] was 74.5 µM and the “SI OC-43 (selectivity index, ratio CC50/EC50)” value [3] was >6.71. For the same molecule, the CC50 at 72 h ([4]; Huh7 cells) was > 500 µM, the CC50 at 72 h ([4]; THP-1 cells) was > 500 µM and the “SI HIV-1 (selectivity index, ratio CC50/EC50)” value (pseudotyped HIV-1) was >2.83. The EC50 (pseudotyped HIV-1) was 177 µM, the “SI DENV (selectivity index, ratio CC50/EC50)” value (dengue virus (DENV)) was >3.62 and the EC50 (dengue virus (DENV)) was 138 µM. The CC50 at 72 h [5] was > 500 µM.
With COc1ccc(CN(C)CCc2ccc(O)cc2)cc1O [4′-O,N-dimethylnorbelladine, 5-(((4-hydroxyphenethyl)(methyl)amino)methyl)-2-methoxyphenol] the inhibition at 500 µM [1] was 43.6%, the IC50 [1] was > 500 µM and the inhibition at 500 µM [2] was 99%. For the same molecule, the IC50 [2] was 10.4 µM, the “fold increase in BuChE inhibition by N-methylation compared to non-N-methylated control” value [2] was 1.5 fold and the EC50 [3] was 42.4 µM. For the same molecule, the “SI OC-43 (selectivity index, ratio CC50/EC50)” value [3] was >11.80, the CC50 at 72 h ([4]; Huh7 cells) was 460 µM and the CC50 at 72 h ([4]; THP-1 cells) was > 500 µM. The “SI HIV-1 (selectivity index, ratio CC50/EC50)” value (pseudotyped HIV-1) was >4.06, the EC50 (pseudotyped HIV-1) was 123 µM and the “SI DENV (selectivity index, ratio CC50/EC50)” value (dengue virus (DENV)) was 4.81. The EC50 (dengue virus (DENV)) was 95.8 µM and the CC50 at 72 h [5] was > 500 µM.
In the case of COc1ccc(CCN(C)Cc2ccc(O)c(OC)c2)cc1 [4′-O-demethylbelladine], the anti-AChE activity (AChE) is listed as “weak”.
For COc1ccc(CNCCc2ccc(O)cc2)cc1O [4′-O-methylnorbelladine], the inhibition at 500 µM [1] was 33.6%, the IC50 [1] was > 500 µM and the inhibition at 500 µM [2] was 99%. For the same molecule, the IC50 [2] was 16.1 µM, the EC50 [3] was 63 µM and the “SI OC-43 (selectivity index, ratio CC50/EC50)” value [3] was >7.93. The CC50 at 72 h ([4]; Huh7 cells) was > 500 µM, the CC50 at 72 h ([4]; THP-1 cells) was > 500 µM and the “SI HIV-1 (selectivity index, ratio CC50/EC50)” value (pseudotyped HIV-1) was >3.06. For the same molecule, the EC50 (pseudotyped HIV-1) was 163 µM, the “SI DENV (selectivity index, ratio CC50/EC50)” value (dengue virus (DENV)) was >6.28 and the EC50 (dengue virus (DENV)) was 79.6 µM. The CC50 at 72 h [5] was > 500 µM.
With CN(CCc1ccc(O)cc1)Cc1ccc(O)c(O)c1 [N-methylnorbelladine] the inhibition at 500 µM [1] was 31.2%, the IC50 [1] was > 500 µM and the inhibition at 500 µM [2] was 96%. For the same molecule, the IC50 [2] was 3.94 µM and 4 µM, the “fold increase in BuChE inhibition by N-methylation compared to non-N-methylated control” value [2] was 2 fold and the EC50 [3] was 66.8 µM. For the same molecule, the “SI OC-43 (selectivity index, ratio CC50/EC50)” value [3] was >7.49, the CC50 at 72 h ([4]; Huh7 cells) was 386 µM and the CC50 at 72 h ([4]; THP-1 cells) was 227 µM. For the same molecule, the CC50 (Huh7 cells) was 386 µM, the CC50 (THP-1 cells) was 227 µM and the “SI HIV-1 (selectivity index, ratio CC50/EC50)” value (pseudotyped HIV-1) was 5.36. The EC50 (pseudotyped HIV-1) was 42.3 µM, the “SI DENV (selectivity index, ratio CC50/EC50)” value (dengue virus (DENV)) was 5.70 and the EC50 (dengue virus (DENV)) was 67.7 µM. For the same molecule, the CC50 at 72 h [5] was > 500 µM.
For Oc1ccc(CCNCc2ccc(O)c(O)c2)cc1 [Norbelladine], the inhibition at 500 µM [1] was 24.5%, the IC50 [1] was > 500 µM and the inhibition at 500 µM [2] was 95%. The IC50 [2] was 8 µM, the EC50 [3] was 55.7 µM and the “SI OC-43 (selectivity index, ratio CC50/EC50)” value [3] was >8.98. For the same molecule, the CC50 at 72 h ([4]; Huh7 cells) was 233 µM, the CC50 at 72 h ([4]; THP-1 cells) was 148 µM and the CC50 (Huh7 cells) was 233 µM. The CC50 (THP-1 cells) was 148 µM, the “SI HIV-1 (selectivity index, ratio CC50/EC50)” value (pseudotyped HIV-1) was 2.22 and the EC50 (pseudotyped HIV-1) was 66.9 µM. For the same molecule, the “SI DENV (selectivity index, ratio CC50/EC50)” value (dengue virus (DENV)) was 3.30, the EC50 (dengue virus (DENV)) was 70.6 µM and the CC50 at 72 h [5] was > 500 µM.
